Measured values: ChEMBL document CHEMBL5727227, “N-((het) arylmethyl)-heteroaryl-carboxamides compounds as plasma kallikrein inhibitors” (2019)

Biological target: Plasma kallikrein (Homo sapiens, UniProt P03952)
Test: Inhibitory Activity In Vitro Assay : Plasma kallikrein inhibitory activity in vitro was determined using standard published methods. Human plasma kallikrein (Protogen) was incubated at 25° C. with the fluorogenic substrate H-DPro-Phe-Arg-AFC and various concentrations of the test compound. Residual enzyme activity (initial rate of reaction) was determined by measuring the change in […] and the IC50 value for the test compound was determined.

Plasma kallikrein, sequence (P03952 20-390 limits assumed): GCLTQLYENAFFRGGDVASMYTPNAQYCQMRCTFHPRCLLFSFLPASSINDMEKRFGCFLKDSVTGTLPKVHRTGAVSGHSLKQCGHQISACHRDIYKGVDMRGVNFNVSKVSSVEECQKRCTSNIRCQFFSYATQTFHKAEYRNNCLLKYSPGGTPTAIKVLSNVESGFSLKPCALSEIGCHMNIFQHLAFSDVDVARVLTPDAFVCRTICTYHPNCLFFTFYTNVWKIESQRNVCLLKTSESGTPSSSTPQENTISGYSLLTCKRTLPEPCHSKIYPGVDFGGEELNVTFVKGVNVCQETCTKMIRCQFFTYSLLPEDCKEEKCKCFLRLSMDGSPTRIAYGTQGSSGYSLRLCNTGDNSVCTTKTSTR
Plasma kallikrein, sequence (P03952 391-638 limits assumed): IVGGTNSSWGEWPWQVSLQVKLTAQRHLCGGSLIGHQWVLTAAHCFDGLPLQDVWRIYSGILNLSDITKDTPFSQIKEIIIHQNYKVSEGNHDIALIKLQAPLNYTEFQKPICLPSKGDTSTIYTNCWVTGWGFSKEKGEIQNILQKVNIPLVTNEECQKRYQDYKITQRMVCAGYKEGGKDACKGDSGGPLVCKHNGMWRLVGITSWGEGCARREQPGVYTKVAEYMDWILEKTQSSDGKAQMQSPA

With CCOc1cccc(CNC(=O)c2cn(Cc3ccc(Cn4cc(C)cn4)cc3)nc2C(F)(F)F)c1 the IC50 was 2360 nM.
